Measurements taken from publication PMC8470334, “N-Heterocyclic Carbene Iron Complexes as Anticancer Agents: In Vitro and In Vivo Biological Studies” (Molecules, 2021).

Assays:
A2780 cell line = experiment: MTS cell viability assay (CellTiter 96), A2780; type: cell-based, human; details: for IC50: A2780, 48 h exposure, MTS, mean ± SEM; for SI (selectivity index): IC50 of fibroblasts / IC50 of A2780
Method: (§1) The in vitro cytotoxic potential of complexes Fe1 and Fe2 was evaluated through the CellTiter 96®Aqueous Non-Radioactive Cell Proliferation Assay using MTS, as described in Section 3.3.2 [26].
(§2) The antiproliferative activity of both complexes was evaluated through the exposure of the A2780 cell line to 0.01–50 µM of complexes Fe1 or Fe2 (Figure 3A) and of the HCT116 cell line to 0.1–50 µM of complexes Fe1 or Fe2 (Figure 3B) for 48 h.
(§3) Human colorectal carcinoma (HCT116) and normal dermal fibroblasts cell lines were grown in Dulbecco’s modified Eagle’s medium (DMEM) (Invitrogen Corp., Grand Island, NY, USA) supplemented with 10% (v/v) foetal bovine serum and 1% (v/v) antibiotic/antimycotic solution (Invitrogen Corp.). Human ovarian carcinoma (A2780) cell line was cultivated using the Roswell Park Memorial Institute (RPMI) medium supplemented as DMEM. The supplemented medium is named complete medium. Cells were grown in an incubator with a humidified atmosphere at 5% (v/v) CO2 and 37 °C. All cell lines were purchase from ATCC (ATCC®, American Type Culture Collection, Washington, DC, USA).
(§4) The evaluation of the cytotoxic potential of the complexes Fe1 and Fe2 was obtained through the measurement in vitro of the antiproliferative activity of these complexes. Cells were plated in 96-well plates at 7.5 × 10^4 cells/mL and incubated at 37 °C with 5% (v/v) CO2. After 24 h, the culture medium was replaced with a fresh medium containing 0.01–100 µM of complexes Fe1 or Fe2 and incubated for 48 h, as described previously. DMSO 0.1% (v/v) was used as the vehicle control for all cell lines. The fibroblasts cell line was used as a control of cytotoxicity of the complexes for healthy cells. Cisplatin was used as a positive control (a common chemotherapeutic agent). Cell viability was evaluated using CellTiter 96®Aqueous Non-Radioactive Cell Proliferation Assay (Promega, Madison, WI, USA) using 3-(4,5-dimethylthiazol-2-yl)-5-(3-carboxymethoxyphenyl)-2-(4-sulfophenyl)-2H-tetrazolium, inner salt (MTS), as described previously. In metabolically active cells, enzymes present in the mitochondria catalyse a reaction in which NADPH/ NADH is produced. These enzymes can reduce the MTS reagent into a brownish-coloured product called formazan, which can be quantified by measuring the absorbance at 490 nm. The quantity of product produced is directly proportional to the number of viable cells in culture. The amount of formazan product formed was measured with a Bio-Rad Microplate Reader Model 680 (Bio-Rad, Hercules, CA, USA). Half maximal inhibitory concentration (IC50) was calculated using GraphPad Prism 6 (GraphPad Software, La Jolla, CA, USA). Selectivity index (SI) was calculated for both tumour cell lines by dividing the IC50 of fibroblasts with the IC50 of HCT116 or A2780 for complexes Fe1 and Fe2.

HCT116 cell line = experiment: MTS cell viability assay (CellTiter 96), HCT116; type: cell-based, human; details: for IC50: HCT116, 48 h exposure, MTS, mean ± SEM; for SI (selectivity index): IC50 of fibroblasts / IC50 of HCT116
Method: as §1, §2, §3, §4

[1] = system: normal dermal fibroblasts; experiment: MTS cell viability assay (CellTiter 96), fibroblasts; type: cell-based, human; details: 48 h exposure, mean ± SEM
Method: The antiproliferative effect of complexes Fe1 and Fe2 was also tested on a nontumor cell line, fibroblasts, to evaluate their antiproliferative activity in healthy cells. For that, a range of concentrations from 0.01 to 100 µM of both complexes was used (Figure 4). As previously observed for the tumour cell lines, a concentration-dependent reduction of cell viability is observed (Figure 3 and Figure 4).
Human colorectal carcinoma (HCT116) and normal dermal fibroblasts cell lines were grown in Dulbecco’s modified Eagle’s medium (DMEM) (Invitrogen Corp., Grand Island, NY, USA) supplemented with 10% (v/v) foetal bovine serum and 1% (v/v) antibiotic/antimycotic solution (Invitrogen Corp.). […]
The evaluation of the cytotoxic potential of the complexes Fe1 and Fe2 was obtained through the measurement in vitro of the antiproliferative activity of these complexes. […] Cell viability was evaluated using CellTiter 96®Aqueous Non-Radioactive Cell Proliferation Assay (Promega, Madison, WI, USA) using 3-(4,5-dimethylthiazol-2-yl)-5-(3-carboxymethoxyphenyl)-2-(4-sulfophenyl)-2H-tetrazolium, inner salt (MTS), as described previously. […] These enzymes can reduce the MTS reagent into a brownish-coloured product called formazan, which can be quantified by measuring the absorbance at 490 nm. The quantity of product produced is directly proportional to the number of viable cells in culture. […]

[2] = Stability in PBS by UV-visible spectrum; type: physicochemical; details: PBS pH 7.0, room temperature, aerobic, over 48 h
Method: The stability of complexes Fe1 and Fe2 was evaluated over 48 h at room temperature by monitoring their UV–visible spectrum in PBS (pH 7.0) (Figure 2). […] Based on our previous works with Ru carbonyl metal complexes, we speculate that release of CO ligand, 2 in the case of Fe1 and 1 in the case of Fe2, may occur in the first 30 min, as the decrease profile is more pronounced for Fe1 with two CO ligands (Figure 2B,D). We could also speculate that, in the case of Fe1, both CO ligands might be replaced by water molecules, maintaining the previous charge on this novel Fe species (cationic), while in Fe2, the release of the CO ligand and replacement by water molecule would maintain this new Fe species neutral.
Complexes Fe1 and Fe2 solutions were prepared in 10 mM phosphate-buffered solution (PBS) containing 0.15 M NaCl (pH 7). All spectra were recorded for 48 h on a recorded with a Varian-Cary 100 Bio spectrophotometer (Agilent, Santa Clara, CA, USA), using a quartz cuvette with 1 cm path length in a wavelength range from 220 to 500 nm.

[3] = Solubility in buffer aqueous media; type: physicochemical; details: fully soluble on adding DMSO (final not above 0.1% v/v)
zebrafish embryos = experiment: Fish embryo acute toxicity test (FET); type: in vivo, zebrafish (Danio rerio); details: for LC50: early blastula stage up to 72 hpf, Logit and Probit analyses; for LOEC (lowest observed effect concentration) / NOEC (no observed effect concentration): up to 72 hpf
Method: In addition, the mortality distribution obtained for each compound allowed the accurate estimation of the LC50 (Figure 7). […] For this reason, Fe1 and Fe2 compounds were analysed in vivo using colorectal HCT116 zebrafish xenograft.
The wild-type zebrafish were housed in a water recirculation system under controlled physicochemical conditions of temperature (26 ± 2 °C), pH (7–7.5), and conductivity (400–600 µS/cm). The fertilised eggs were collected after natural spawning and housed in Petri dishes until their use. Next, eggs were exposed to Fe1 and Fe2 and dissolved in water containing 1% DMSO. Then, toxicological analyses were carried out based on the approved standard OECD TG 236—fish embryo toxicity test (FET), with modifications. For the study, four replicates of 12 embryos were distributed for each of the 5 concentrations tested for compounds; for Fe1, the concentrations used were 15, 20, 25, 30, 35 µM), and for Fe2 were 1, 5, 10, 15, 20 µM. The performed zebrafish toxicity experiments were approved by the animal care and use committee of the University of Santiago de Compostela and the standard protocols of Spain (CEEA-LU-003 and […]). The toxicity results data were analysed by probit analysis using ToxRat Software (ToxRat Solutions. 2003. ToxRat. Software for statistical analysis of bioassays. Alsdorf, Germany).

[4] = system: human HCT116 colorectal cancer cells; experiment: Zebrafish embryo xenograft assay; type: in vivo; details: compared with control
Method: HCT116 human colorectal cancer cell line was incubated in standard conditions in a humidified incubator at 37 °C and 5% CO2 until a confluence of 70–80% was reached. Afterwards, the cells were concentrated and labelled with DiI and injected in the circulation (Duct of Cuvier) of 48 hpf zebrafish embryos in order to assay the proliferation in vivo of the cells exposed to Fe1 and Fe2. Fe1 and Fe2 (5 μM and 0.25 μM, respectively) were dissolved in the water at 1-day post injection (dpi) to allow the recovery of the embryos from the injection in the first 24 h and maintained until the end of the experiment at 3 dpi. Imaging of the embryos was performed at 1 dpi and 3 dpi to quantify the fluorescence and area of the cells in the caudal hematopoietic tissue (CHT) in the tail of the embryos, where cells invade and grow, and measure their proliferation over time to assess the inhibitory effect of the compounds assayed over the cells.
The results were calculated based on a comparison between 3 dpi and 1 dpi time points and normalised at 3 dpi against control conditions due to the nature of the lipophilic dye in the proliferation of the cells. […]
At 1 dpi, the embryos were imaged, and the compound (Fe1 and Fe2) was added to the water. […] Imaging of the embryos was performed using a fluorescence stereomicroscope (AZ-100, Nikon, Tokyo, Japan). […]

| Compound | IC50 (A2780 cell line) | IC50 (HCT116 cell line) | IC50 [1] | stability (360 nm band) [2] | solubility [3] | LC50 (zebrafish embryos) | LOEC (lowest observed effect concentration) (zebrafish embryos) | NOEC (no observed effect concentration) (zebrafish embryos) | proliferation of HCT116 cells in vivo ([4]; 0.25 μM dissolved in the water from 1 dpi to 3 dpi) | SI (selectivity index) (A2780 cell line) | SI (selectivity index) (HCT116 cell line) | proliferation of HCT116 cells in vivo ([4]; 5 μM dissolved in the water from 1 dpi to 3 dpi) |
| --- | --- | --- | --- | --- | --- | --- | --- | --- | --- | --- | --- | --- |
| N.N.[Cl][Pt][Cl] [Cisplatin, reference compound] | 1900 ± 200 nM | 15.6 ± 5.3 µM |  |  |  |  |  |  |  |  |  |  |
| Cp(IMes)Fe(CO)I [Fe2] | 2910 ± 510 nM | 3.26 ± 0.1 µM | 42 ± 0.75 µM | a lower decrease of the 360 nm peak intensity occurs within the first 30 min | insoluble in buffer aqueous media | 6.86 µM | 5 µM | 1 µM | reduce the proliferation of human HCT116 colorectal cancer cells in vivo | 14.4 | 12.9 |  |
| [Cp(IMes)Fe(CO)2]I [Fe1] | 1340 ± 250 nM | 0.87 ± 0.09 µM | 23.61 ± 0.14 µM | rapidly transformed into a new Fe species that is then stable, at least, until 24 h | insoluble in buffer aqueous media | 24.6 µM | 20 µM | 15 µM |  | 17.7 | 27.1 | reduce the proliferation of human HCT116 colorectal cancer cells in vivo |
